Results published in publication PMC11369174, “Proteome-scale characterisation of motif-based interactome rewiring by disease mutations” (Molecular Systems Biology, 2024).
Where a SMILES comes first, the peptide text is derived from it. The star is where a group is joined. FITC = O=C1OC2(c3ccc(O)cc3Oc3cc(O)ccc32)c2ccc(NC(=S)*)cc21

Key:
[1] = biological target: T1, G3BP2 NTF2 (Homo sapiens, UniProt Q9UN86); assay: FP displacement assay, G3BP2 NTF2; conditions: FP displacement of FITC-N_SARS-CoV-2 (10 nM) complexed with domain (1-2x KD), 50 mM sodium phosphate pH 7.4, KD from IC50, technical triplets, n.b. = not binding within concentration range used
T1 sequence (Q9UN86 1-139): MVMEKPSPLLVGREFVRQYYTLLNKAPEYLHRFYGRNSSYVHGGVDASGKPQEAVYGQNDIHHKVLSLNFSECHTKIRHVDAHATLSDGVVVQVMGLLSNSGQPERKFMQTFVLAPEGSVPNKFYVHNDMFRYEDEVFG

[2] = biological target: T2, USP7 MATH/TRAF (Homo sapiens, UniProt Q93009); assay: FP saturation binding, USP7 MATH/TRAF; conditions: domain titrated to 10 nM FITC-peptide, 50 mM sodium phosphate pH 7.4, 0.05% Tween, quadratic fit, technical triplets, read-out: KD [µM] + SE
T2 sequence (Q93009 53-206): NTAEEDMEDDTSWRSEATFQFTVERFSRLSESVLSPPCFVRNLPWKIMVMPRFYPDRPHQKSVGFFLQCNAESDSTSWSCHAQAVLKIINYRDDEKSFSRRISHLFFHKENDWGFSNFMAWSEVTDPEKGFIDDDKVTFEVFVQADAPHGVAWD

[3] = biological target: T3, GGA1 VHS (Homo sapiens, UniProt Q9UJY5); assay: GenVar_HD2 ProP-PD phage selection, GGA1 VHS; conditions: bait GGA1 VHS; from NGS counts of overlapping wild-type/mutant library peptide pairs; positive = mutation enhances, negative = disrupts binding
T3 sequence (Q9UJY5 1-157): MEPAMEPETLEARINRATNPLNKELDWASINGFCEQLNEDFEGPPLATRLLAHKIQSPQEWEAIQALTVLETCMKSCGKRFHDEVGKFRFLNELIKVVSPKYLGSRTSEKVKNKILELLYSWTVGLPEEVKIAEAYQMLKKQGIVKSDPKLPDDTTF
Procedure: (§1) Phage display screens were performed according to previous reports (Benz et al, [2022]; Ali et al, [2020]) and for four consecutive selection rounds with five to six replicates per bait protein domain against the […] library.
(§2) On the first day, both bait (15 µg in 100 µL PBS) and control protein domains (GST and MBP; 10 µg in 100 µL PBS) were immobilised on a 96-well MaxiSorb plate (Nunc) overnight in the cold room while shaking. Additionally, a 10 mL culture of Omnimax E. coli bacteria supplemented with 10 µg/mL tetracycline was incubated overnight at 37 °C at 200 rpm.
(§3) First, protein solutions were removed from both control and bait protein domain plates and the wells were blocked with 0.5% BSA in PBS (200 µL/well) for 1 h in the cold room while shaking. After that, three Omnimax E. coli cultures were started supplemented with either 30 µg/mL kanamycin, 100 µg/mL carbenicillin and 10 µg/mL tetracycline and incubated at 37 °C and 200 rpm. The two first cultures served as a means to check for helper phage contamination (kanamycin) and phages with library phagemid contamination (carbenicillin) of the culture used for elution of the phages during selections. The tetracycline Omnimax E. coli culture was grown until OD at 600 nm reached 0.6–0.8. […]

[4] = biological target: T4, CLTC NTD (Homo sapiens, UniProt Q00610); assay: GenVar_HD2 ProP-PD phage selection, CLTC NTD; conditions: bait CLTC NTD; from NGS counts of overlapping wild-type/mutant library peptide pairs; positive = mutation enhances, negative = disrupts binding
T4 sequence (Q00610 1-364): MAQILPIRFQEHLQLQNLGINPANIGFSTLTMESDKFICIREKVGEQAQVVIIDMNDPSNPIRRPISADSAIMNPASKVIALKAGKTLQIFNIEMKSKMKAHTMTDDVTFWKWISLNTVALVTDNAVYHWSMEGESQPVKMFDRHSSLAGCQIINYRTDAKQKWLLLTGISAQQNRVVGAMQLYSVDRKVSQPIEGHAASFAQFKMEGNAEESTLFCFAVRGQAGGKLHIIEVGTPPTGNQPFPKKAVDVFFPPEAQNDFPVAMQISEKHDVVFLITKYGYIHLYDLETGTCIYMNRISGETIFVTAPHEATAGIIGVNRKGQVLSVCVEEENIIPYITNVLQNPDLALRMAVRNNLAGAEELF
Procedure: as §1, §2, §3

[5] = biological target: T1, G3BP2 NTF2; assay: GenVar_HD2 ProP-PD phage selection, G3BP2 NTF2; conditions: bait G3BP2 NTF2; from NGS counts of overlapping wild-type/mutant library peptide pairs; positive = mutation enhances, negative = disrupts binding
Procedure: as §1, §2, §3

[6] = biological target: NEDD4 WW2 (Homo sapiens, UniProt P46934); assay: FP saturation binding, NEDD4 WW2; conditions: GST-tagged construct, domain titrated to 10 nM FITC-peptide, 50 mM sodium phosphate pH 7.4, 0.05% Tween, quadratic fit, technical triplets, read-out: KD [µM] + SE
Sequence of NEDD4 WW2 (P46934 765-803 limits assumed): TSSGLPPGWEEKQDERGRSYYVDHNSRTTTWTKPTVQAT
Procedure: In order to calculate the FP signal in millipolarisation (mP), the FITC-labelled peptides were excited at 485 nm and the emitted light was measured at 535 nm in two different angles. For saturation experiments, a dilution series of the respective protein domains was generated (25 µL) and 10 nM fluorescein isothiocyanate (FITC)-labelled peptide (diluted in 50 mM sodium phosphate buffer pH 7.4, 0.05% Tween) were added in an end volume of 50 µL. A control experiment titrating GST was performed for the binding of the NEDD4 WW2 domain, since the GST-tagged construct was used for affinity measurements. For fitting the data, the buffer-corrected reduced values were plotted in GraphPad PRISM against the respective protein concentration and the KD-values were obtained by fitting against the quadratic equation (Gianni et al, [2005]).

[7] = biological target: T3, GGA1 VHS; assay: FP saturation binding, GGA1 VHS; conditions: domain titrated to 10 nM FITC-peptide, 50 mM sodium phosphate pH 7.4, 0.05% Tween, quadratic fit, technical triplets, read-out: KD [µM] + SE
[8] = biological target: G3BP1 NTF2 (Homo sapiens, UniProt Q13283); conditions: FP displacement of FITC-N_SARS-CoV-2 (10 nM) complexed with domain (1-2x KD), 50 mM sodium phosphate pH 7.4, KD from IC50, technical triplets, n.b. = not binding within concentration range used
Sequence of G3BP1 NTF2 (Q13283 1-139): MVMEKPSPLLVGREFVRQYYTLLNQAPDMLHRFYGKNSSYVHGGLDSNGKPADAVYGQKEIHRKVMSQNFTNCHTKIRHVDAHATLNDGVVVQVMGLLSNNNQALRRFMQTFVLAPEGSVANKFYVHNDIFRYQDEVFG

[9] = biological target: T5, GABARAPL1 ATG8 (Homo sapiens, UniProt Q9H0R8); assay: FP saturation binding, GABARAPL1 ATG8; conditions: domain titrated to 10 nM FITC-peptide, 50 mM sodium phosphate pH 7.4, 0.05% Tween, quadratic fit, technical triplets, read-out: KD [µM] + SE
T5 sequence (Q9H0R8 2-115): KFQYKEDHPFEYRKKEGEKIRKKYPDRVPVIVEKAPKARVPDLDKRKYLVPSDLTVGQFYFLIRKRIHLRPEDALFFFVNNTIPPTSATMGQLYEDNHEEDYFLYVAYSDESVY

[10] = biological target: T5, GABARAPL1 ATG8; assay: FP displacement assay, GABARAPL1 ATG8; type: binding; conditions: read-out: KD-values [µM] + SEM
Procedure: (§4) FP experiments were performed, as previously described (Kliche et al, [2021], [2023]), on an iD5 plate reader (Molecular devices) using black half-area non-binding 96-well plates (Corning). In order to calculate the FP signal in millipolarisation (mP), the FITC-labelled peptides were excited at 485 nm and the emitted light was measured at 535 nm in two different angles. For saturation experiments, a dilution series of the respective protein domains was generated (25 µL) and 10 nM fluorescein isothiocyanate (FITC)-labelled peptide (diluted in 50 mM sodium phosphate buffer pH 7.4, 0.05% Tween) were added in an end volume of 50 µL. […] For fitting the data, the buffer-corrected reduced values were plotted in GraphPad PRISM against the respective protein concentration and the KD-values were obtained by fitting against the quadratic equation (Gianni et al, [2005]).
(§5) The buffer-corrected reduced values were subsequently plotted against the logarithmic unlabelled peptide concentration to derive the IC50 values by using the sigmoidal dose-response (x is logarithmic) fit in GraphPad PRISM and calculate the KD values as described previously (Nikolovska-Coleska et al, [2004]).

[11] = biological target: T6, MAP1LC3B ATG8 (Homo sapiens, UniProt Q9GZQ8); assay: FP displacement assay, MAP1LC3B ATG8; type: binding
Procedure: FP experiments were performed, as previously described (Kliche et al, [2021], [2023]), on an iD5 plate reader (Molecular devices) using black half-area non-binding 96-well plates (Corning). In order to calculate the FP signal in millipolarisation (mP), the FITC-labelled peptides were excited at 485 nm and the emitted light was measured at 535 nm in two different angles. For saturation experiments, a dilution series of the respective protein domains was generated (25 µL) and 10 nM fluorescein isothiocyanate (FITC)-labelled peptide (diluted in 50 mM sodium phosphate buffer pH 7.4, 0.05% Tween) were added in an end volume of 50 µL. A control experiment titrating GST was performed for the binding of the NEDD4 WW2 domain, since the GST-tagged construct was used for affinity measurements. For fitting the data, the buffer-corrected reduced values were plotted in GraphPad PRISM against the respective protein concentration and the KD-values were obtained by fitting against the quadratic equation (Gianni et al, [2005]).
as §5

[12] = biological target: T5, GABARAPL1 ATG8; assay: GenVar_HD2 ProP-PD phage selection, GABARAPL1 ATG8; conditions: bait GABARAPL1 ATG8; from NGS counts of overlapping wild-type/mutant library peptide pairs; positive = mutation enhances, negative = disrupts binding
Procedure: as §1, §2, §3

[13] = biological target: T6, MAP1LC3B ATG8; assay: GenVar_HD2 ProP-PD phage selection, MAP1LC3B ATG8; conditions: bait MAP1LC3B ATG8; from NGS counts of overlapping wild-type/mutant library peptide pairs; positive = mutation enhances, negative = disrupts binding
Procedure: as §1, §2
First, protein solutions were removed from both control and bait protein domain plates and the wells were blocked with 0.5% BSA in PBS (200 µL/well) for 1 h in the cold room while shaking. After that, three Omnimax E. coli cultures were started supplemented with either 30 µg/mL kanamycin, 100 µg/mL carbenicillin and 10 µg/mL tetracycline and incubated at 37 °C and 200 rpm. The two first cultures served as a means to check for helper phage contamination (kanamycin) and phages with library phagemid contamination (carbenicillin) of the culture used for elution of the phages during selections. The tetracycline Omnimax E. coli culture was grown until OD at 600 nm reached 0.6–0.8.
Naïve phage libraries were precipitated (10 µL/well of bait protein domain) by diluting the library tenfold with PBS, adding one-fourth of 20% […] and 400 mM NaCl and incubating the mixture for 15 min on ice. Subsequently, phages were spun down for 15 min at 13,000 × g and resuspended in 0.5% BSA and 0.05% Tween-20 in PBS (100 µL/well). Control domain plates were washed four times with 200 µL 0.05% Tween-20 in PBS, 100 µL of the naïve phage library (10^11 phages/mL) were added to every well and the plates incubated for 1 h in the cold room while shaking. Next, protein bait domain plates were washed four times with 0.05% Tween-20 in PBS and the phage solution from the control protein plate was transferred to the respective wells on the protein bait domain plate. […]

[14] = biological target: T7, MAP1LC3A ATG8 (Homo sapiens, UniProt Q9H492); assay: FP displacement assay, MAP1LC3A ATG8; type: binding; conditions: read-out: KD-values [µM] + SEM
Procedure: as §4, §5

[15] = biological target: ABL1 SH3 (Homo sapiens, UniProt P00519); assay: FP saturation binding, ABL1 SH3; conditions: domain titrated to 10 nM FITC-peptide, 50 mM sodium phosphate pH 7.4, 0.05% Tween, quadratic fit, technical triplets, read-out: KD [µM] + SE
Sequence of ABL1 SH3 (P00519 60-121): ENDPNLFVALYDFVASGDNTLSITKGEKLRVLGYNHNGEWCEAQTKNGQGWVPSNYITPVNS

[16] = biological target: T2, USP7 MATH/TRAF; assay: FP displacement assay, USP7 MATH/TRAF; type: binding; conditions: read-out: KD-values [µM] + SEM
Procedure: as §4, §5

[17] = biological target: T2, USP7 MATH/TRAF; assay: GenVar_HD2 ProP-PD phage selection, USP7 MATH/TRAF; conditions: bait USP7 MATH/TRAF; from NGS counts of overlapping wild-type/mutant library peptide pairs; positive = mutation enhances, negative = disrupts binding
Procedure: as §1, §2, §3

[18] = biological target: T7, MAP1LC3A ATG8; assay: GenVar_HD2 ProP-PD phage selection, MAP1LC3A ATG8; conditions: bait MAP1LC3A ATG8; from NGS counts of overlapping wild-type/mutant library peptide pairs; positive = mutation enhances, negative = disrupts binding
Procedure: as §1, §2, §3

Ac-DLLTCGQAQMNFPY-NH2 [BCL11A_44-56 wild-type]
KD-values [µM] + SEM [1]: n.b.

CC[C@H](C)[C@H](NC(=O)[C@H](CO)NC(=O)[C@H](CO)NC(=O)[C@H](CO)NC(=O)[C@@H](NC(=O)[C@H](CO)NC(=O)[C@@H]1CCCN1C(=O)[C@H](CCC(N)=O)NC(=O)[C@H](CO)NC(=O)[C@H](Cc1ccc(O)cc1)NC(=O)[C@H](CC(=O)O)NC(=S)Nc1ccc2c(c1)C(=O)OC21c2ccc(O)cc2Oc2cc(O)ccc21)[C@@H](C)O)C(=O)N[C@H](C(=O)N[C@@H](Cc1ccc(O)cc1)C(=O)O)[C@@H](C)CC [FITC-MDM2] ({FITC}-DYSQPSTSSSIIY-OH)
Kd [2]: 0.5 ± 0.03 µM

Ac-YQQELDHLLVDLDHQR-NH2 [MYH9_1419-1433 D1424H]
Mutation enrichment score [3]: −10

Ac-DLLTFGQAQMNFPY-NH2 [BCL11A_44-56 C48F]
Mutation enrichment score [4]: 12
Mutation enrichment score [5]: 10

C[C@H](NC(=O)[C@H](CO)NC(=O)[C@H](Cc1ccc(O)cc1)NC(=O)[C@@H]1CCCN1C(=O)[C@@H]1CCCN1C(=O)[C@@H]1CCCN1C(=O)[C@H](CO)NC(=O)[C@H](CC(=O)O)NC(=O)[C@@H](NC(=S)Nc1ccc2c(c1)C(=O)OC21c2ccc(O)cc2Oc2cc(O)ccc21)[C@@H](C)O)C(=O)NCC(=O)O [FITC-UL56(HHV-2)] ({FITC}-TDSPPPYSAG-OH)
Kd [6]: 4.1 ± 0.3 µM

CC[C@H](C)[C@H](NC(=O)[C@H](CC(=O)O)NC(=O)[C@H](CC(C)C)NC(=O)[C@H](CC(C)C)NC(=O)[C@H](CC(=O)O)NC(=O)[C@H](CCC(=O)O)NC(=O)[C@H](CC(=O)O)NC(=O)[C@H](CCC(=O)O)NC(=O)[C@H](CC(=O)O)NC(=S)Nc1ccc2c(c1)C(=O)OC21c2ccc(O)cc2Oc2cc(O)ccc21)C(=O)N[C@@H](CCC(=O)O)C(=O)N[C@@H](CC(=O)O)C(N)=O [FITC-STK11_mut] ({FITC}-DEDEDLLDIED-NH2)
Kd [7]: 14.1 ± 0.7 µM

H3COC-QQSYLD(S/F)GIHSGATTT-NH2 [CTNNB1_27-42 wild-type]
KD-values [µM] + SEM [8]: no binding and n.b.

CC(C)C[C@H](NC(=O)[C@H](Cc1c[nH]cn1)NC(=O)[C@@H](NC(=O)[C@H](Cc1c[nH]c2ccccc12)NC(=O)[C@H](CC(=O)O)NC(=O)[C@H](CC(=O)O)NC(=O)[C@H](CC(=O)O)NC(=S)Nc1ccc2c(c1)C(=O)OC21c2ccc(O)cc2Oc2cc(O)ccc21)[C@@H](C)O)C(=O)N[C@@H](CO)C(=O)N[C@@H](CO)C(=O)N[C@@H](CCCCN)C(N)=O [FITC-SQSTM1]
Kd [9]: 3.7 ± 0.4 µM

Ac-DKDEWQFLDQNEDAFE-NH2 [BUB1_486-501 S492F]
Kd [10]: < 0.3 µM
increase in affinity, mutant vs wild-type peptide ([11]; from FP displacement KD values, MAP1LC3B ATG8): four-fold increase in affinity
Kd ([11]; read-out: KD-values [µM] + SEM): 1.6 ± 0.1 µM
Mutation enrichment score [12]: 16
Mutation enrichment score [13]: 12

Ac-QTKWELLQQVDTSTRT-NH2 [KRT1_209-224 wild-type]
Kd [14]: 55 ± 5 µM

CC(C)[C@H](NC(=O)[C@@H]1CCCN1C(=O)[C@@H]1CCCN1C(=O)[C@@H]1CCCN1C(=O)[C@@H]1CCCN1C(=O)[C@H](Cc1ccc(O)cc1)NC(=O)[C@H](C)NC(=O)[C@@H]1CCCN1C(=O)[C@@H]1CCCN1C(=O)[C@H](Cc1c[nH]cn1)NC(=S)Nc1ccc2c(c1)C(=O)OC21c2ccc(O)cc2Oc2cc(O)ccc21)C(=O)N1CCC[C@H]1C(=O)N[C@H](C(N)=O)[C@@H](C)O [FITC-3BP2] ({FITC}-HPPAYPPPPVPT-NH2)
Kd [15]: 3.7 ± 0.4 µM

Ac-YISSSSTSTMPNSSKSS-NH2 [CHK2_38-53 Q51K]
Kd [16]: 4.7 ± 0.3 µM
Mutation enrichment score [17]: −6

Ac-QTKWEPLQQVDTSTRT-NH2 [KRT1_209-224 L214P]
Mutation enrichment score [18]: −6
